This assay concerns L1210 leukemia ip in BDF1 mice, survival T/C. The assay can be described thus: NCI In Vivo Anticancer Drug Screen. Data for tumor model L1210 Leukemia (intraperitoneal) in B6D2F1 (BDF1) mice. As to conditions: endpoint: mean survival time, higher = longer survival. An outline of the steps: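 Ratio derived from survival: compound-dosed mice over vehicle-dosed mice, all bearing a transplantable tumor.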

The mark [1] stands for this setting: dose: 100.0 mg/kg/injection, schedule: Q01DX001 (ip), vehicle: Klucel (hydroxypropylcellulose) (HPC).
The mark [2] stands for this setting: dose: 200.0 mg/kg/injection, schedule: Q01DX001 (ip), vehicle: Klucel (hydroxypropylcellulose) (HPC).
Where [3] appears, read: dose: 400.0 mg/kg/injection, schedule: Q01DX001 (ip), vehicle: Klucel (hydroxypropylcellulose) (HPC).
The mark [4] stands for this setting: dose: 100.0 mg/kg/injection, schedule: Q04DX003 (ip), vehicle: Klucel (hydroxypropylcellulose) (HPC).
The mark [5] stands for this setting: dose: 200.0 mg/kg/injection, schedule: Q04DX003 (ip), vehicle: Klucel (hydroxypropylcellulose) (HPC).
[6] abbreviates: dose: 400.0 mg/kg/injection, schedule: Q04DX003 (ip), vehicle: Klucel (hydroxypropylcellulose) (HPC).
Where [7] appears, read: dose: 100.0 mg/kg/injection, schedule: Q01DX001 (ip), vehicle: carboxymethylcellulose (CMC).
Setting [8] is: dose: 200.0 mg/kg/injection, schedule: Q01DX001 (ip), vehicle: carboxymethylcellulose (CMC).

Each structure is given as a SMILES string. Values joined by “and” are separate entries in the source; they are usually repeats but may differ in a detail not shown here. Equal entries are not always repeated. Toxic doses and inconclusive results are not listed.

Consider `NC(=S)c1cn(C2OC(CO)C(O)C2O)c2ncnc(N)c12` (configuration not stated), for which the T/C runs as follows: (dose: 0.5 mg/kg/injection, schedule: Q03HX016 (ip), vehicle: other) 118 % of control; (dose: 0.5 mg/kg/injection, schedule: Q03HX024 (ip), vehicle: saline) 156 % of control; (dose: 1.0 mg/kg/injection, schedule: Q03HX016 (ip), vehicle: other) 118 % of control; (dose: 1.0 mg/kg/injection, schedule: Q03HX024 (ip), vehicle: saline) 172 % of control; (dose: 2.0 mg/kg/injection, schedule: Q03HX016 (ip), vehicle: other) 176 % of control; (dose: 2.0 mg/kg/injection, schedule: Q03HX024 (ip), vehicle: saline) 124 % of control. The T/C by setting is: (dose: 3.75 mg/kg/injection, schedule: Q01DX009 (ip), vehicle: carboxymethylcellulose (CMC)) 110 % of control; (dose: 4.0 mg/kg/injection, schedule: Q08DX002 (ip), vehicle: other) 123 % of control; (dose: 5.0 mg/kg/injection, schedule: Q01DX001 (ip), vehicle: saline) 112 % of control; (dose: 7.5 mg/kg/injection, schedule: Q01DX001 (ip), vehicle: carboxymethylcellulose (CMC)) 117 % of control; (dose: 8.0 mg/kg/injection, schedule: Q04DX003 (ip), vehicle: saline) 151 % of control; (dose: 8.0 mg/kg/injection, schedule: Q08DX002 (ip), vehicle: other) 123 % of control. For the same compound, the T/C is 118 % of control (dose: 10.0 mg/kg/injection, schedule: Q01DX001 (ip), vehicle: saline); 122 % of control (dose: 15.0 mg/kg/injection, schedule: Q01DX001 (ip), vehicle: carboxymethylcellulose (CMC)); 96 % of control (dose: 16.0 mg/kg/injection, schedule: Q04DX003 (ip), vehicle: saline).
On to `COc1ccc(-c2cnc(=S)[nH]c2N)cc1`, for which the T/C is, setting by setting: under setting [1], 116 % of control; under setting [2], 121 % of control; under setting [3], 119 % of control.
With `CCc1ccc(OS(=O)(=O)c2ccccc2[N+](=O)[O-])cc1`, the T/C reads like this: (dose: 100.0 mg/kg/injection, schedule: Q01DX009 (ip), vehicle: saline with Tween-80) 96 % of control; under setting [4], 100 % of control; (dose: 200.0 mg/kg/injection, schedule: Q01DX009 (ip), vehicle: saline with Tween-80) 114 % of control; under setting [5], 100 % of control; (dose: 400.0 mg/kg/injection, schedule: Q01DX009 (ip), vehicle: saline with Tween-80) 103 % of control; under setting [6], 95 % of control.
Take `c1ccc(-c2cnc3nc4ccccc4nc3n2)cc1`: the T/C is 87 % of control (dose: 75.0 mg/kg/injection, schedule: Q01DX001 (ip), vehicle: other); 91 % of control (dose: 150.0 mg/kg/injection, schedule: Q01DX001 (ip), vehicle: other); 97 % of control (dose: 300.0 mg/kg/injection, schedule: Q01DX001 (ip), vehicle: other).
In the case of `c1ccc(NN(CN(Nc2ccccc2)c2ccccc2)c2ccccc2)cc1`, the T/C runs as follows: (dose: 100.0 mg/kg/injection, schedule: Q01DX001 (ip), vehicle: other) 95 % of control; (dose: 400.0 mg/kg/injection, schedule: Q01DX001 (ip), vehicle: other) 89 % of control.
Consider `COc1cc2c(cc1OC)C1C(C)c3ccc(OC)c(OC)c3CN1CC2` (configuration not stated), for which the T/C under setting [7] is 100 % of control; the T/C under setting [8] was 100 % of control; the T/C (dose: 400.0 mg/kg/injection, schedule: Q01DX001 (ip), vehicle: carboxymethylcellulose (CMC)) was 96 % of control.
Turning to `O=C(O)C1C2C=CC(C2)C1(C(=O)O)c1ccccc1` (configuration not stated), the T/C is, setting by setting: under setting [7], 95 % of control; (dose: 100.0 mg/kg/injection, schedule: Q04DX003 (ip), vehicle: carboxymethylcellulose (CMC)) 98 % of control; under setting [8], 95 % of control; (dose: 200.0 mg/kg/injection, schedule: Q04DX003 (ip), vehicle: carboxymethylcellulose (CMC)) 92 % of control.
For `C=CCn1c(-c2cccs2)nc2c(Cl)ncnc21`, the T/C (dose: 24.0 mg/kg/injection, schedule: Q01DX009 (ip), vehicle: steriod suspending solution) is 88 % of control and the T/C (dose: 39.0 mg/kg/injection, schedule: Q01DX009 (ip), vehicle: steriod suspending solution) is 90 % of control.
As for `Cc1cc(NC(=O)c2cccc(S(=O)(=O)F)c2)cc(C)c1OCc1nc(N)nc(N)c1-c1ccc(Cl)c(Cl)c1`, the T/C runs as follows: (dose: 100.0 mg/kg/injection, schedule: Q01DX001 (ip), vehicle: saline with Tween-80) 97 % of control; (dose: 200.0 mg/kg/injection, schedule: Q01DX001 (ip), vehicle: saline with Tween-80) 88 % of control; (dose: 400.0 mg/kg/injection, schedule: Q01DX001 (ip), vehicle: saline with Tween-80) 101 % of control.
For `Nc1nc(N)c2nc(CN3CCCc4cc(C(=O)NC(CCC(=O)O)C(=O)O)ccc43)cnc2n1` (configuration not stated), where the note is “dose: 100.0 mg/kg/injection, schedule: Q04DX003 (ip), vehicle: saline”, the T/C was 207 % of control.
On to `O=c1cc(Nc2cccc(Cl)c2)[nH]c(=O)[nH]1`, for which the T/C reads like this: (dose: 35.0 mg/kg/injection, schedule: Q01DX001 (ip), vehicle: Klucel (hydroxypropylcellulose) (HPC)) 92 % of control; (dose: 70.0 mg/kg/injection, schedule: Q01DX001 (ip), vehicle: Klucel (hydroxypropylcellulose) (HPC)) 92 % of control; (dose: 140.0 mg/kg/injection, schedule: Q01DX001 (ip), vehicle: Klucel (hydroxypropylcellulose) (HPC)) 98 % of control.
Consider `O=C(c1ccccc1)C1C(C(=O)c2ccccc2)N1C1CCCCC1` (configuration not stated), for which the T/C runs as follows: under setting [4], 91 % of control; under setting [5], 91 % of control; under setting [6], 96 % of control.
With `N#CSCC(=O)c1ccc(Cl)cc1`, the T/C by setting is: (dose: 50.0 mg/kg/injection, schedule: Q01DX001 (ip), vehicle: carboxymethylcellulose (CMC)) 91 % of control; under setting [7], 100 % of control; under setting [8], 100 % of control.
On to `O=C(O)C(F)(F)C(F)(F)C(F)(F)F.[Ag]`, for which the T/C runs as follows: (dose: 10.0 mg/kg/injection, schedule: Q01DX001 (ip), vehicle: acetone) 101 % of control; (dose: 20.0 mg/kg/injection, schedule: Q01DX001 (ip), vehicle: acetone) 96 % of control; (dose: 40.0 mg/kg/injection, schedule: Q01DX001 (ip), vehicle: acetone) 109 % of control.
In the case of `CCCCCN1CCCC(OC(=O)N(C)C)C1` (configuration not stated), the T/C (dose: 25.0 mg/kg/injection, schedule: Q04DX002 (ip), vehicle: saline) is 106 % of control; the T/C (dose: 50.0 mg/kg/injection, schedule: Q04DX002 (ip), vehicle: saline) was 103 % of control; the T/C (dose: 100.0 mg/kg/injection, schedule: Q04DX002 (ip), vehicle: saline) is 86 % of control.
On to `CCCNS(=O)(=O)c1ccc(Cl)c([N+](=O)[O-])c1`, for which the T/C is, setting by setting: (dose: 12.5 mg/kg/injection, schedule: Q04DX003 (ip), vehicle: Klucel (hydroxypropylcellulose) (HPC)) 100 % of control; (dose: 25.0 mg/kg/injection, schedule: Q04DX003 (ip), vehicle: Klucel (hydroxypropylcellulose) (HPC)) 97 % of control; (dose: 50.0 mg/kg/injection, schedule: Q04DX003 (ip), vehicle: Klucel (hydroxypropylcellulose) (HPC)) 100 % of control; under setting [4], 98 % of control; under setting [5], 103 % of control.
As to `CNC(CO)C1CCCCC1` (configuration not stated), the T/C (dose: 75.0 mg/kg/injection, schedule: Q01DX001 (ip), vehicle: saline) is 100 % of control; the T/C (dose: 150.0 mg/kg/injection, schedule: Q01DX001 (ip), vehicle: saline) was 102 % of control; the T/C (dose: 300.0 mg/kg/injection, schedule: Q01DX001 (ip), vehicle: saline) is 101 % of control.
On to `Cc1cccc(NC(=O)Nc2cc(C)on2)c1`, for which the T/C is, setting by setting: under setting [1], 100 % of control; (dose: 100.0 mg/kg/injection, schedule: Q01DX009 (ip), vehicle: Klucel (hydroxypropylcellulose) (HPC)) 91 % of control; (dose: 100.0 mg/kg/injection, schedule: Q04DX002 (ip), vehicle: Klucel (hydroxypropylcellulose) (HPC)) 98 % of control and 102 % of control; under setting [4], 92 % of control; under setting [2], 95 % of control; (dose: 200.0 mg/kg/injection, schedule: Q01DX009 (ip), vehicle: Klucel (hydroxypropylcellulose) (HPC)) 94 % of control and 91 % of control. Also, the T/C is 94 % of control and 98 % of control (dose: 200.0 mg/kg/injection, schedule: Q04DX002 (ip), vehicle: Klucel (hydroxypropylcellulose) (HPC)); 93 % of control under setting [5]; 95 % of control under setting [3]; 100 % of control and 91 % of control (dose: 400.0 mg/kg/injection, schedule: Q01DX009 (ip), vehicle: Klucel (hydroxypropylcellulose) (HPC)); 98 % of control and 109 % of control (dose: 400.0 mg/kg/injection, schedule: Q04DX002 (ip), vehicle: Klucel (hydroxypropylcellulose) (HPC)); 93 % of control under setting [6].

The values are drawn from PubChem BioAssay AID248 (DTP/NCI, 2004).
